SMILES strings stand for the structures. A value given as a limit tells only on which side of the number the result lay.

The target in the assay is T1, GSNOR (GSNO Reductase) (Homo sapiens, UniProt P11766).
T1 construct: made in house; host or cells: E. coli (arabinose-induced)
T1 sequence (P11766 whole entry): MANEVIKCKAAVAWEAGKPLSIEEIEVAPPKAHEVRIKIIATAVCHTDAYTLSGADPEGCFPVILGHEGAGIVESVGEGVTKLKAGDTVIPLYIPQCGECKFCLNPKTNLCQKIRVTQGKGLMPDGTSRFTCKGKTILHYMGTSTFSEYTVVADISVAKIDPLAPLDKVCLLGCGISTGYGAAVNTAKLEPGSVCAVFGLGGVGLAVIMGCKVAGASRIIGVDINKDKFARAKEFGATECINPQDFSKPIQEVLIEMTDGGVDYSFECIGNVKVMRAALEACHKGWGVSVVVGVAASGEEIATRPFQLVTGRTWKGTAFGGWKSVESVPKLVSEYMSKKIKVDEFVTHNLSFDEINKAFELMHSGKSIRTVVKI
Description: GSNOR assay (in vitro inhibition of GSNOR activity, change in 340 nm absorbance). It counts as biochemical. Particulars: GSNOR inhibitor activity by the assay of Example 2; 0.240 mM GSNO, 0.300 mM NADH, pH 7.4, 25° C.; values given as 'about' bounds. The protocol:
Various compounds were tested in vitro for their ability to inhibit GSNOR activity. Representative compounds and their corresponding GSNOR activity are described in a paragraph before Table 1 above. GSNOR expression and purification is described in Biochemistry 2000, 39, 10720-10729.
Pre-cultures were grown from stabs of a GSNOR glycerol stock in 2XYT media containing 100 ug/ml ampicillin after an overnight incubation at 37° C. Cells were then added to fresh 2XYT (4 L) containing ampicillin and grown to an OD (A600) of 0.6-0.9 at 37° C. before induction. GSNOR expression was induced with 0.1% arabinose in an overnight incubation at 20° C.
E. coli cell paste was lysed by nitrogen cavitation and the clarified lysate purified by Ni affinity chromatography on an AKTA FPLC (Amersham Pharmacia). The column was eluted in 20 mM Tris pH 8.0/250 mM NaCl with a 0-500 mM imidazole gradient. […] GSNOR was recovered in the flowthrough fraction and for crystallography is further purified by Q-Sepharose and Heparin flowthrough chromatography in 20 mM Tris pH 8.0, 1 mM DTT, 10 uM ZnSO4.
GSNO and Enzyme/NADH Solutions are made up fresh each day. The Solutions are filtered and allowed to warm to room temperature. GSNO Solution: 100 mM NaPO4 (pH 7.4), 0.480 mM GSNO. 396 μL of GSNO Solution is added to a cuvette followed by 8 μL of test compound in DMSO (or DMSO only for full reaction control) and mixed with the pipette tip. Compounds to be tested are made up at a stock concentration of 10 mM in 100% DMSO. 2 fold serial dilutions are done in 100% DMSO. 8 μL of each dilution are added to an assay so that the final concentration of DMSO in the assay is 1%. The concentrations of compounds tested range from 100 to 0.003 μM. Enzyme/NADH Solution: 100 mM NaPO4 (pH 7.4), 0.600 mM NADH, 1.0 μg/mL GSNO Reductase. 396 μL of the Enzyme/NADH Solution is added to the cuvette to start the reaction. The cuvette is placed in the Cary 3E UV/Visible Spectrophotometer and the change in 340 nm absorbance/min at 25° C. is recorded for 3 minutes. The assays are done in triplicate for each compound concentration. IC50's for each compound are calculated using the standard curve analysis in the Enzyme Kinetics Module of SigmaPlot.
Final assay conditions: 100 mM NaPO4, pH 7.4, 0.240 mM GSNO, 0.300 mM NADH, 0.5 μg/mL GSNO Reductase and 1% DMSO. Final volume: 800 μL/cuvette.
For the compound `NC(=O)c1ccc(-n2c(CCc3nnn[nH]3)ccc2-c2ccccc2)cc1` [Compound 1, 4-(2-(2-(1H-tetrazol-5-yl)ethyl)-5-phenyl-1H-pyrrol-1-yl)benzamide], the 50% inhibitory concentration (IC50) is < 1000 nM.

In the case of `COc1ccc(-c2ccc(CCc3nnn[nH]3)n2-c2ccc(C(N)=O)cc2C)cc1` [Compound 4, 4-(2-(2-(1H-tetrazol-5-yl)ethyl)-5-(4-methoxyphenyl)-1H-pyrrol-1-yl)-3-methylbenzamide], the IC50 was < 5000 nM.

On to `Oc1ccc(-n2c(CCc3nnn[nH]3)ccc2-c2ccc(Br)cc2)cc1` [Compound 5, 4-(2-(2-(1H-tetrazol-5-yl)ethyl)-5-(4-bromophenyl)-1H-pyrrol-1-yl)phenol], for which the IC50 is < 1000 nM.

With `Oc1ccc(-n2c(Cc3nnn[nH]3)ccc2-c2ccc(Br)cc2)cc1` [Compound 6, 4-(2-((1H-tetrazol-5-yl)methyl)-5-(4-bromophenyl)-1H-pyrrol-1-yl)phenol], the IC50 was < 5000 nM.

For the compound `Oc1ccc(-n2c(CCc3nnn[nH]3)ccc2-c2ccc(-n3ccnc3)cc2)cc1` [Compound 8, 4-(2-(4-(1H-imidazol-1-yl)phenyl)-5-(2-(1H-tetrazol-5-yl)ethyl)-1H-pyrrol-1-yl)phenol], the IC50 was < 1000 nM.

With `Cc1cc(C(N)=O)ccc1-n1c(Cc2nnn[nH]2)ccc1-c1ccc(Br)cc1` [Compound 9, 4-(2-((1H-tetrazol-5-yl)methyl)-5-(4-bromophenyl)-1H-pyrrol-1-yl)-3-methylbenzamide], the IC50 was < 1000 nM.

Regarding `COc1ccc(-c2ccc(Cc3nnn[nH]3)n2-c2ccc(C(N)=O)cc2C)cc1` [Compound 10, 4-(2-((1H-tetrazol-5-yl)methyl)-5-(4-methoxyphenyl)-1H-pyrrol-1-yl)-3-methylbenzamide], the IC50 is < 5000 nM.

For the compound `Cc1cc(C(N)=O)ccc1-n1c(CCc2nnn[nH]2)ccc1-c1ccc(Br)cc1` [Compound 11, 4-(2-(2-(1H-tetrazol-5-yl)ethyl)-5-(4-bromophenyl)-1H-pyrrol-1-yl)-3-methylbenzamide], the IC50 was < 1000 nM.

For `Oc1ccc(-n2c(Cc3nnn[nH]3)ccc2-c2ccc(-n3ccnc3)cc2)cc1` [Compound 12, 4-(2-(4-(1H-imidazol-1-yl)phenyl)-5-((1H-tetrazol-5-yl)methyl)-1H-pyrrol-1-yl)phenol], the IC50 was < 1000 nM.

Consider `COc1ccc(-c2ccc(CCc3nnn[nH]3)n2-c2ccc(O)cc2)cc1` [Compound 13, 4-(2-(2-(1H-tetrazol-5-yl)ethyl)-5-(4-methoxyphenyl)-1H-pyrrol-1-yl)phenol], for which the IC50 was < 5000 nM.

On to `COc1cc(Cl)ccc1-c1ccc(CCc2nnn[nH]2)n1-c1ccc(O)cc1` [Compound 14, 4-(2-(2-(1H-tetrazol-5-yl)ethyl)-5-(4-chloro-2-methoxyphenyl)-1H-pyrrol-1-yl)phenol], for which the IC50 is < 1000 nM.

Turning to `COc1cc(Br)ccc1-c1ccc(CCc2nnn[nH]2)n1-c1ccc(O)cc1` [Compound 15, 4-(2-(2-(1H-tetrazol-5-yl)ethyl)-5-(4-bromo-2-methoxyphenyl)-1H-pyrrol-1-yl)phenol], the IC50 was < 1000 nM.

On to `COc1cc(Cl)ccc1-c1ccc(CCc2nnn[nH]2)n1-c1ccc(C(N)=O)cc1C` [Compound 16, 4-(2-(2-(1H-tetrazol-5-yl)ethyl)-5-(4-chloro-2-methoxy-phenyl)-1H-pyrrol-1-yl)-3-methylbenzamide], for which the IC50 is < 1000 nM.

On to `COc1cc(Br)ccc1-c1ccc(CCc2nnn[nH]2)n1-c1ccc(C(N)=O)cc1C` [Compound 17, 4-(2-(2-(1H-tetrazol-5-yl)ethyl)-5-(4-bromo-2-methoxy-phenyl)-1H-pyrrol-1-yl)-3-methylbenzamide], for which the IC50 is < 1000 nM.

In the case of `Cc1nccn1-c1ccc(-c2ccc(Cc3nnn[nH]3)n2-c2ccc(O)cc2)cc1` [Compound 18, 4-(2-((1H-tetrazol-5-yl)methyl)-5-(4-(2-methyl-1H-imidazol-1-yl)phenyl)-1H-pyrrol-1-yl)phenol], the IC50 is < 1000 nM.

Take `Cc1cc(C(N)=O)ccc1-n1c(Cc2nnn[nH]2)ccc1-c1ccc(-n2ccnc2C)s1` [Compound 19, 4-(2-((1H-tetrazol-5-yl)methyl)-5-(5-(2-methyl-1H-imidazol-1-yl)thiophen-2-yl)-1H-pyrrol-1-yl)-3-methylbenzamide]: the IC50 is < 1000 nM.

On to `Cc1nccn1-c1ccc(-c2ccc(Cc3nnn[nH]3)n2-c2ccc(O)cc2)s1` [Compound 20, 4-(2-((1H-tetrazol-5-yl)methyl)-5-(5-(2-methyl-1H-imidazol-1-yl)thiophen-2-yl)-1H-pyrrol-1-yl)phenol], for which the IC50 was < 1000 nM.

With `Cc1cc(C(N)=O)ccc1-n1c(Cc2nnn[nH]2)ccc1-c1ccc(-n2ccnc2C)cc1` [Compound 21, 4-(2-((1H-tetrazol-5-yl)methyl)-5-(4-(2-methyl-1H-imidazol-1-yl)phenyl)-1H-pyrrol-1-yl)-3-methylbenzamide], the IC50 is < 1000 nM.

Regarding `Cc1cc(NS(C)(=O)=O)ccc1-n1c(Cc2nn[nH]n2)ccc1-c1ccc(-n2ccnc2C)s1` [Compound 22, N-(4-(2-((1H-tetrazol-5-yl)methyl)-5-(5-(2-methyl-1H-imidazol-1-yl)-thiophen-2-yl)-1H-pyrrol-1-yl)-3-methylphenyl)-methanesulfonamide], the IC50 was < 1000 nM.

For the compound `COc1ccc(-c2ccn(CCc3nnn[nH]3)c2-c2ccc(C(N)=O)cc2C)cc1` [Compound 23, 4-(1-(2-(1H-tetrazol-5-yl)ethyl)-3-(4-methoxy-phenyl)-1H-pyrrol-2-yl)-3-methylbenzamide], the IC50 was < 5000 nM.

One may read the IC50 as the point on the concentration scale where inhibition reaches its midpoint. Low readings indicate higher potency, high ones lower potency.
